Assay results taken from PubChem BioAssay AID743417 (Broad Institute, 2014).
Inconclusive results are not listed. The source made the active and inactive calls.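 Rule for the calls: active = compounds lowering the luciferase signal with a fitted half-maximal dose at most twice their top valid dose (cut at about 30 µM in these data); inconclusive = flat fits with moderate signal loss, or poor fits; inactive = the rest.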

What follows are compounds tested on Clone20 osteoblast Shn3 3'UTR firefly luciferase, 24 h (assay: Schnurri-3 3'UTR-luciferase signal suppressors – cell-based, Clone20 osteoblasts, luminescence, dry powder, set 2, dose response (AID 743417)).
Compound `CCCOc1ccccc1C1CC(=O)Nc2cc3c(cc21)OCCO3` (stereo not drawn) has an AC50 of 3660 nM.
`CCCCNc1cccc2c1S(=O)(=O)N(CCCC)CC(COCc1ccccc1)O2` (stereo not drawn) gave an AC50 of 8930 nM.
With `COc1ccc(OCc2cccc(C(=O)O)c2)cc1` the AC50 was 1390 nM.
`Cc1ccc(S(=O)(=O)N2CCN(C(=O)C3CCN(c4ncnc5sc(C)c(C)c45)CC3)CC2)c(C)c1` gave an AC50 of 2120 nM.
Work on `Cc1ccc(C(=O)Nc2cnc3ccccc3c2)cc1` yielded an AC50 of 4040 nM.
In the case of `C=CCOc1nc2c(c(=O)n(C)c(=O)n2C)n1Cc1ccc(Cl)cc1`, the AC50 was 1030 nM.
`Cc1ccc(NC(=O)CSc2nn(-c3ccccc3)c(=S)s2)cc1S(=O)(=O)N(C)C` showed an AC50 of 5820 nM.
Work on `Oc1cc(-c2ccncc2)cc2cccnc12` yielded an AC50 of 5400 nM.
In the case of `COC(=O)c1ccc(CCc2cc(O)ccc2O)cc1`, the AC50 was 3140 nM.
Compound `CCOC(=O)C1(Cc2ccc(Cl)cc2)CCN(C(C)Cc2ccc(O)c(OC)c2)CC1` (stereo not drawn) has an AC50 of 1330 nM.
For `Cn1nccc1C(=O)NC1CCCc2c1cnn2-c1ccccc1F` (stereo not drawn), the AC50 was 370 nM.
`Cc1cc(/C=C2/SC(=S)N(c3cccc(Cl)c3)C2=O)c(C)n1-c1cccnc1` was tested, and the AC50 was 979 nM.
In the case of `COc1ccc(NS(=O)(=O)c2ccc(NC(=O)C(CCSC)NC(N)=O)cc2)cc1` (stereo not drawn), the AC50 was > 70000 nM (inactive).
Work on `CCCCN1CC(COCc2ccccc2)Oc2cccc(Oc3ccc(C)cc3)c2S1(=O)=O` (stereo not drawn) yielded an AC50 of 10700 nM.
`COC(=O)C[C@]1(C(=O)OC)CN(C#N)N(c2ccc(Cl)cc2)C12c1ccccc1-c1ccccc12` was tested, and the AC50 was 1880 nM.
With `CNc1ccccc1C(C)(C)c1cc(-c2cccc(Br)c2)no1` the AC50 was 2000 nM.
`Cc1cc(C(=O)CSc2nc(N)cc(=O)[nH]2)c(C)n1-c1cccc(F)c1` was tested, and the AC50 was 1660 nM.
Compound `O=C(CN1C(=O)c2ccccc2S1(=O)=O)c1ccc2c(c1)OCCCO2` has an AC50 of 262 nM.
`COc1ccc(CNC(=O)c2nc(S(=O)(=O)Cc3ccccc3)ncc2Cl)cc1` showed an AC50 of 956 nM.
`COc1cc2c(cc1OC)C1C(=O)c3ccc4c(c3OC1CO2)CC(C(C)C)O4` (stereo not drawn) showed an AC50 of less than 260 nM.
`Cc1ccc(-c2nn(C(C)(C)C)c3ncnc(N)c23)cc1` was tested, and the AC50 was 5890 nM.
Compound `CCN1CCN(Cc2ccc(NC(=O)c3ccc(C)c(/C=C/c4cnc(Nc5cc(N6CCNCC6)nc(C)n5)cn4)c3)cc2C(F)(F)F)CC1` has an AC50 of 9560 nM.
For `CN(CC(=O)Nc1cc(S(=O)(=O)N2CCCC2)ccc1Cl)Cc1ccc2c(c1)OCO2`, the AC50 was 13100 nM.
`COC(=O)C1=C(c2ccc(OCc3ccccc3)cc2)C[C@@H]2CC[C@H]1N2C(=O)NCc1ccc(C(C)(C)C)cc1` gave an AC50 of 6840 nM.
`O=[N+]([O-])c1ccc(S(=O)(=O)c2ccccc2)nc1` was tested, and the AC50 was 1740 nM.
In the case of `CCOc1cc(CNCCCN2CCOCC2)cc(Br)c1OCc1ccccc1Cl`, the AC50 was 9310 nM.
`CCN(CC)CCn1c(=N)n(CC(O)COc2cccc(C)c2)c2ccccc21` (stereo not drawn) gave an AC50 of 4390 nM.
`CCOC(=O)c1oc2ccc(S(=O)(=O)n3nc(-c4ccc(OC)cc4)cc3N)cc2c1C` was tested, and the AC50 was 1990 nM.
Work on `Cc1ccc(NC(=O)CN(C)CC(=O)Nc2cccc(F)c2)cc1[N+](=O)[O-]` yielded an AC50 of 570 nM.
`COc1ccc(CNCCC(c2ccc(OC(C)C)cc2)c2ccccc2OC)cc1OC` (stereo not drawn) gave an AC50 of 4350 nM.
Compound `O=C(/C=C/c1ccc(OCc2ccccc2)c(OCc2ccccc2)c1)c1cccnc1` has an AC50 of 5190 nM.
In the case of `Cc1ccccc1OCCn1cc(C(=S)N2CCCC2)c2ccccc21`, the AC50 was 24300 nM.
`CCn1c(CNC(=O)c2cc(OC)c(OC)c(OC)c2)cc2cc(C)ccc21` showed an AC50 of 2520 nM.
Work on `COc1ccc(NS(=O)(=O)c2ccc(N3CCCCC3)c(N)c2)cc1` yielded an AC50 of 824 nM.
`Cn1nnnc1Sc1ncnc2scc(-c3ccc(Br)cc3)c12` was tested, and the AC50 was 334 nM.
`Oc1ccc(-c2nc(-c3ccc(O)c(O)c3)cs2)cc1` showed an AC50 of 5070 nM.
`CN(Cc1nccn1C)C(=O)c1cc(COc2ccc3ncccc3c2)on1` showed an AC50 of 6970 nM.
With `CCCCOC(=O)c1[nH]c2c(c1C)C(=O)CC(c1cc(OC)c(OC)c(OC)c1)C2` (stereo not drawn) the AC50 was 1350 nM.
Work on `Cc1ccccc1OCCOC(=O)c1cc(S(=O)(=O)N2CCCCC2)ccc1N1CCOCC1` yielded an AC50 of 3790 nM.
`S=C(NNc1ccnc2cc(Cl)ccc12)Nc1ccc(Cl)cc1Cl` gave an AC50 of 4900 nM.
`CC(C)(C)c1cc(C(c2cccnc2)N2CCN(CCO)CC2)cc(C(C)(C)C)c1O` (stereo not drawn) showed an AC50 of 1700 nM.
In the case of `COc1cccc(-c2nc(NC3CCCC3)c3ccccc3n2)c1O`, the AC50 was 25000 nM.
Compound `COc1cccc(CN(C)C(=O)c2cc(COc3ccc4ncccc4c3)on2)c1` has an AC50 of 1490 nM.
`COc1ccccc1-c1cc(C(F)(F)F)nc(S(=O)(=O)CCCC(=O)N2CCCCC2C)n1` (stereo not drawn) showed an AC50 of 2650 nM.
In the case of `O=C(CSc1n[nH]c(-c2ccccn2)n1)Nc1cccc(Cl)c1`, the AC50 was 2900 nM.
`O=[N+]([O-])c1c(NCCO)cc(Sc2nc3ccccc3s2)c2nonc12` showed an AC50 of 1640 nM.
Compound `C=C1C(=O)OC2CC(C)C3C=CC(=O)C3(C)C(O)C12` (stereo not drawn) has an AC50 of less than 260 nM.
`Cc1nc([N+](=O)[O-])c(Br)n1CC(=O)c1ccc2ccccc2c1` was tested, and the AC50 was 10600 nM.
With `COc1cc(NS(C)(=O)=O)ccc1Nc1c2ccccc2nc2ccccc12` the AC50 was 1320 nM.
In the case of `COC(=O)c1cn(NC(=O)c2cc([N+](=O)[O-])ccc2F)c(=O)c2ccccc12`, the AC50 was 2850 nM.
`COc1ccc(CCN2CCC(Nc3nc4ccccc4n3Cc3ccc(F)cc3)CC2)cc1` showed an AC50 of 3030 nM.
Work on `CCCC(=O)NC(c1ccc(N(C)C)cc1)c1ccc2cccnc2c1O` (stereo not drawn) yielded an AC50 of 916 nM.
Work on `CCN(CC)S(=O)(=O)c1cccc(NC(=O)CNc2cccc(S(=O)(=O)N3CCCC3)c2)c1` yielded an AC50 of 317 nM.
